Test results as given in patent publication EP4603105A1, “PHARMACEUTICAL COMPOSITION CONTAINING CYCLIC COMPOUND HAVING SELECTIVE KRAS INHIBITORY EFFECT AGAINST HRAS AND NRAS” (CHUGAI SEIYAKU KABUSHIKI KAISHA, priority 2022, dated 2024).
Where a SMILES comes first, the peptide text is derived from it. Bridges are numbered along the chain shown (N, C = ends). [ ]: non-standard residue; d: D form. The star is where a group is joined. hPhe(3-Cl-4-CF3) = N[C@@H](CCc1ccc(C(F)(F)F)c(Cl)c1)C(=O)O; NPrPhe(4-CF3) = CCCN[C@@H](Cc1ccc(C(F)(F)F)cc1)C(=O)O; NMeGly(cPent) = CN[C@H](C(=O)O)C1CCCC1; Hyp = O=C(O)[C@@H]1C[C@@H](O)CN1; NMeD = CN[C@@H](CC(=O)O)C(=O)O; NMeL = CN[C@@H](CC(C)C)C(=O)O; Morpholide = C1CN(*)CCO1; NMeA = CN[C@@H](C)C(=O)O; Ac5c = NC1(C(=O)O)CCCC1; Aze = O=C(O)[C@@H]1CCN1; Sar = CNCC(=O)O

Legend:
[1] = biological target: GDP-bound NRAS wild-type protein (Homo sapiens, UniProt P01111); assay: Binding to NRAS by surface plasmon resonance (SPR), KD and KD ratio to KRAS
How it was run: (§1)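 Recombinant RAS proteins bearing a biotinylated Avi tag and loaded with GDP served as the captured ligand, recaptured fresh every cycle. Binding responses were referenced to an uncoated surface and a buffer-only blank cycle. Dissociation constants were obtained by 1:1 model fitting at 30°C.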

[2] = system: human lung cancer strain NCI-H441; format: cell-based
How it was run: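 Signal came from […] measured per well once the reagent was added. Beforehand, cells were cultured at 37°C and 5% carbon dioxide on a compound series serially diluted in dimethyl sulfoxide.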

[3] = biological target: HRAS wild-type protein (Homo sapiens, UniProt P01112); assay: Binding to HRAS by surface plasmon resonance (SPR), KD and KD ratio to KRAS
How it was run: as §1

[4] = ratio of KD for GDP-bound NRAS wild-type protein to KD for KRAS
[5] = ratio of KD for HRAS wild-type protein to KD for KRAS
[6] = ratio of the KD value with respect to GDP-bound NRAS wild-type protein to the KD value with respect to KRAS
[7] = ratio of the KD value with respect to HRAS wild-type protein to the KD value with respect to KRAS
[8] = ratio of KD value for GDP-bound NRAS wild-type protein to KD value for KRAS (SPR)
[9] = ratio of KD value for HRAS wild-type protein to KD value for KRAS (SPR)

Sequence of GDP-bound NRAS wild-type protein (P01111 whole entry): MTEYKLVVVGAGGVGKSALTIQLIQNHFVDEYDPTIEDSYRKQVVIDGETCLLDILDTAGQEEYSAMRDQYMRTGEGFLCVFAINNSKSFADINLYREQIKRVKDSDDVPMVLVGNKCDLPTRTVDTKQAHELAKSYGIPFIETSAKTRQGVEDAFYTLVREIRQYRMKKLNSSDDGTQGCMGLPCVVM
Sequence of HRAS wild-type protein (P01112 whole entry): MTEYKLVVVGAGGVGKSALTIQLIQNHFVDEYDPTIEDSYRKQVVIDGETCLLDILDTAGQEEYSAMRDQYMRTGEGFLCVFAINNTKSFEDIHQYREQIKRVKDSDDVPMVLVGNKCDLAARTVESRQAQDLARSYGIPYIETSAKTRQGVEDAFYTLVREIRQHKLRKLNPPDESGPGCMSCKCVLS

CCC(CC)[C@H]1C(=O)N(C)[C@H](C(=O)N(C)C)CC(=O)N(C)[C@@H](COC)C(=O)N[C@@H]([C@@H](C)CC)C(=O)N(C)CC(=O)N(C)[C@H]2C/C=C\CCN(C2=O)[C@@H](Cc2ccc(C)cc2)C(=O)N(C)CC(=O)N[C@@H](CCc2cc(F)c(C(F)(F)F)c(F)c2)C(=O)N2CC3(CC3)C[C@H]2C(=O)NC2(CC(C)(C)C2)C(=O)N1C [PP2963]
NRAS /KRAS [1, 4]: AA (a compound having 20 or more is denoted as AA)
IC50 [2]: 0.0134 µM
HRAS /KRAS [3, 5]: A (a compound having 10 or more and less than 20 is denoted as A)

CCC[C@H]1C(=O)N[C@@H]([C@@H](C)CC)C(=O)N2CCC[C@H]2C(=O)N(C)[C@H]2C/C=C\CCN(C2=O)[C@@H](Cc2ccc(C)cc2)C(=O)N(C)CC(=O)N[C@@H](CCc2ccc(C(F)(F)F)c(OC)c2)C(=O)N2C[C@H](OCC)C[C@H]2C(=O)N(C)C2(CCC2)C(=O)N(C)[C@@H](C2CCCC2)C(=O)N(C)[C@H](C(=O)N2CCCC2)CC(=O)N1C [PP3102]
NRAS /KRAS [1, 4]: A (a compound having 10 or more and less than 20 is denoted as A)
IC50 [2]: 0.0067 µM
HRAS /KRAS [3, 5]: A (a compound having 10 or more and less than 20 is denoted as A)

CCCN(C)C(=O)[C@@H]1CC(=O)N(C)[C@@H](CC)C(=O)N[C@@H]([C@@H](C)CC)C(=O)N(C)CC(=O)N(C)[C@H]2C/C=C\CCN(C2=O)[C@@H](Cc2ccc(C(F)(F)F)cc2)C(=O)N(C)CC(=O)N[C@@H](CCc2cc(F)c(C(F)(F)F)c(F)c2)C(=O)N2CC[C@H]2C(=O)NC2(CCC2)C(=O)N(C)[C@@H](C2CCCC2)C(=O)N1C [PP2915]
NRAS /KRAS [1, 4]: A (a compound having 10 or more and less than 20 is denoted as A)
IC50 [2]: 0.129 µM
HRAS /KRAS [3, 5]: A (a compound having 10 or more and less than 20 is denoted as A)

CC[C@H](C)[C@@H]1NC(=O)[C@H](CC(C)C)N(C)C(=O)C[C@@H](C(=O)N(C)C)N(C)C(=O)[C@H](C2CCCC2)N(C)C(=O)C2(CCC2)NC(=O)[C@@H]2CC(F)(F)CN2C(=O)[C@H](CCc2ccc(C(F)(F)F)c(Cl)c2)NC(=O)CN(C)C(=O)[C@H](Cc2ccc(F)cc2)N2CCCCC[C@@H](C2=O)N(C)C(=O)CN(C)C1=O [PP0973]
NRAS /KRAS [1, 4]: B (a compound having 3 or more and less than 10 is denoted as B)
IC50 [2]: 0.0116 µM
HRAS /KRAS [3, 5]: B (a compound having 3 or more and less than 10 is denoted as B)

CCO[C@@H]1C[C@H]2C(=O)NC3(CCC3)C(=O)N(C)[C@@H](C3CCCC3)C(=O)N(C)[C@H](C(=O)N(C)C)CC(=O)N(C)[C@@H](CC3CC3)C(=O)N[C@@H]([C@@H](C)CC)C(=O)N(C)CC(=O)N(C)[C@H]3CCCCCN(C3=O)[C@@H](Cc3ccc(C(F)(F)F)cc3)C(=O)N(C)CC(=O)N[C@@H](CCc3cc(F)c(C(F)(F)F)c(F)c3)C(=O)N2C1 [PP0667]
NRAS /KRAS [1, 6]: B (a compound having 3 or more and less than 10 is denoted as B)
IC50 [2]: 0.0088 µM
HRAS /KRAS [3, 7]: B (a compound having 3 or more and less than 10 is denoted as B)

CCCN1C(=O)CN(C)C(=O)CN(C)C(=O)[C@H]([C@@H](C)CC)NC(=O)[C@H](CC(C)C)N(C)C(=O)C[C@@H](C(=O)N2CCOCC2)N(C)C(=O)[C@H](C2CCCC2)N(C)C(=O)C2(CCCC2)NC(=O)[C@@H]2C[C@@H](O)CN2C(=O)[C@H](CCc2ccc(C(F)(F)F)c(Cl)c2)NC(=O)CN(C)C(=O)[C@@H]1Cc1ccc(C(F)(F)F)cc1 [PP0241] ([NMeL]I[Sar][Sar][NPrPhe(4-CF3)][Sar][hPhe(3-Cl-4-CF3)][Hyp][Ac5c][NMeGly(cPent)][NMeD]-Morpholide; lactam N-11)
NRAS /KRAS [1, 4]: B (a compound having 3 or more and less than 10 is denoted as B)
IC50 [2]: 0.0049 µM
HRAS /KRAS [3, 5]: C (A compound having a KD ratio of 0.1 or more and less than 3 is denoted as C)

CCC(CC)[C@H]1C(=O)N(C)[C@H](C(=O)N(C)C)CC(=O)N(C)[C@@H](COC)C(=O)N[C@@H]([C@@H](C)CC)C(=O)N(C)CC(=O)N(C)[C@H]2C/C=C\CCN(C2=O)[C@@H](Cc2ccc(C(F)(F)F)cc2)C(=O)N(C)CC(=O)N[C@@H](CCc2ccc(Cl)c(Cl)c2)C(=O)N2CCCCC[C@H]2C(=O)NC2(CC(C)(C)C2)C(=O)N1C [PP2972]
NRAS /KRAS [1, 4]: AA (a compound having 20 or more is denoted as AA)
IC50 [2]: 0.0816 µM
HRAS /KRAS [3, 5]: A (a compound having 10 or more and less than 20 is denoted as A)

CCO[C@@H]1C[C@H]2C(=O)NC3(CCCC3)C(=O)N(C)[C@@H](C3CCCC3)C(=O)N(C)[C@H](C(=O)N(C)C)CC(=O)N(C)[C@@H](CC(C)C)C(=O)N[C@@H]([C@@H](C)CC)C(=O)N(C)CC(=O)N(C)[C@H]3CC(C)=CCN(C3=O)[C@@H](Cc3ccc(C(F)(F)F)cc3)C(=O)N(C)CC(=O)N[C@@H](CCc3cc(F)c(C(F)(F)F)c(F)c3)C(=O)N2C1 [PP1031]
NRAS /KRAS [1, 4]: C (A compound having a KD ratio of 0.1 or more and less than 3 is denoted as C)
IC50 [2]: 0.0862 µM
HRAS /KRAS [3, 5]: C (A compound having a KD ratio of 0.1 or more and less than 3 is denoted as C)

CCO[C@@H]1C[C@H]2C(=O)NC3(CCC3)C(=O)N(C)[C@@H](C3CCCC3)C(=O)N(C)[C@H](C(=O)N3CCOCC3)CC(=O)N(C)[C@@H](CC)C(=O)N[C@@H]([C@@H](C)CC)C(=O)N(C)CC(=O)N(C)[C@H]3C[C@@H](C)CCN(C3=O)[C@@H](Cc3ccc(C(F)(F)F)cc3)C(=O)N(C)CC(=O)N[C@@H](CCc3cc(F)c(C(F)(F)F)c(F)c3)C(=O)N2C1 [PP1027]
NRAS /KRAS [1, 4]: C (A compound having a KD ratio of 0.1 or more and less than 3 is denoted as C)
IC50 [2]: 0.0072 µM
HRAS /KRAS [3, 5]: B (a compound having 3 or more and less than 10 is denoted as B)

CCO[C@@H]1C[C@H]2C(=O)NC3(CCC3)C(=O)N(C)[C@@H](C(CC)CC)C(=O)N(C)[C@H](C(=O)N3CCOCC3)CC(=O)N(C)[C@@H](CC3CC3)C(=O)N[C@@H]([C@@H](C)CC)C(=O)N(C)CC(=O)N(C)[C@H]3C/C=C\CCN(C3=O)[C@@H](Cc3ccc(F)cc3C)C(=O)N(C)CC(=O)N[C@@H](CCc3cc(F)c(C(F)(F)F)c(F)c3)C(=O)N2C1 [PP1526]
NRAS /KRAS [1, 8]: A (a compound having 10 or more and less than 20 is denoted as A)
IC50 [2]: 0.118 µM
HRAS /KRAS [3, 9]: A (a compound having 10 or more and less than 20 is denoted as A)

CCO[C@@H]1C[C@H]2C(=O)NC3(CCC3)C(=O)N(C)[C@@H](C(CC)CC)C(=O)N(C)[C@H](C(=O)N(C)C)CC(=O)N(C)[C@@H](CC(C)C)C(=O)N[C@@H]([C@@H](C)CC)C(=O)N(C)CC(=O)N(C)[C@H]3C/C=C\CCN(C3=O)[C@@H](Cc3ccc(F)cc3C)C(=O)N(C)CC(=O)N[C@@H](CCc3cc(F)c(C(F)(F)F)c(F)c3)C(=O)N2C1 [PP1518]
NRAS /KRAS [1, 8]: A (a compound having 10 or more and less than 20 is denoted as A)
IC50 [2]: 0.0494 µM
HRAS /KRAS [3, 9]: B (a compound having 3 or more and less than 10 is denoted as B)

CCO[C@@H]1C[C@H]2C(=O)NC3(CCC3)C(=O)N(C)[C@@H](C3CCCC3)C(=O)N(C)[C@H](C(=O)N(C)CC)CC(=O)N(C)[C@@H](CC3CC3)C(=O)N[C@@H]([C@@H](C)CC)C(=O)N(C)CC(=O)N(C)[C@H]3C/C=C\CCN(C3=O)[C@@H](Cc3ccc(C(F)(F)F)cc3)C(=O)N(C)CC(=O)N[C@@H](CCc3cc(F)c(C(F)(F)F)c(F)c3)C(=O)N2C1 [PP1301]
NRAS /KRAS ([1]; ratio of KD with respect to GDP-bound NRAS wild-type protein to KD with respect to KRAS): A (a compound having 10 or more and less than 20 is denoted as A)
IC50 [2]: 0.0047 µM
HRAS /KRAS ([3]; ratio of KD with respect to HRAS wild-type protein to KD with respect to KRAS): A (a compound having 10 or more and less than 20 is denoted as A)

CCO[C@@H]1C[C@H]2C(=O)NC3(CCC3)C(=O)N(C)[C@@H](C3CCCC3)C(=O)N(C)[C@H](C(=O)N3CCOCC3)CC(=O)N(C)[C@@H](CC(C)C)C(=O)N[C@@H]([C@@H](C)CC)C(=O)N(C)CC(=O)N(C)[C@H]3CCCCN(C3=O)[C@@H](Cc3ccc(C(F)(F)F)cc3)C(=O)N(C)CC(=O)N[C@@H](CCc3cc(F)c(C(F)(F)F)c(F)c3)C(=O)N2C1 [PP0578]
NRAS /KRAS [1, 6]: B (a compound having 3 or more and less than 10 is denoted as B)
IC50 [2]: 0.0022 µM
HRAS /KRAS [3, 7]: B (a compound having 3 or more and less than 10 is denoted as B)

CCO[C@@H]1C[C@H]2C(=O)NC3(CC(C)(C)C3)C(=O)N(C)[C@@H](C3CCCC3)C(=O)N(C)[C@H](C(=O)N(C)C)CC(=O)N(C)[C@@H](CC(C)C)C(=O)N[C@@H]([C@@H](C)CC)C(=O)N(C)CC(=O)N(C)[C@H]3C/C=C\CCN(C3=O)[C@@H](Cc3ccc(C(F)(F)F)cc3)C(=O)N(C)CC(=O)N[C@@H](CCc3ccc(C(F)(F)F)c(Cl)c3)C(=O)N2C1 [PP1751]
NRAS /KRAS [1, 8]: A (a compound having 10 or more and less than 20 is denoted as A)
IC50 [2]: 0.0022 µM
HRAS /KRAS [3, 9]: A (a compound having 10 or more and less than 20 is denoted as A)

CCCN1C(=O)[C@@H]2CCN2C(=O)[C@H](C)N(C)C(=O)[C@H]([C@@H](C)CC)NC(=O)[C@H](CC(C)C)N(C)C(=O)C[C@@H](C(=O)N2CCOCC2)NC(=O)[C@H](C2CCCC2)N(C)C(=O)C2(CCCC2)NC(=O)[C@@H]2C[C@@H](OCC)CN2C(=O)[C@H](CCc2ccc(C(F)(F)F)c(Cl)c2)NC(=O)CN(C)C(=O)[C@@H]1Cc1ccc(C(F)(F)F)cc1 [PP0347] ([NMeL]I[NMeA][Aze][NPrPhe(4-CF3)][Sar][hPhe(3-Cl-4-CF3)][Hyp](Et)[Ac5c][NMeGly(cPent)]D-Morpholide; lactam N-11)
NRAS /KRAS [1, 4]: C (A compound having a KD ratio of 0.1 or more and less than 3 is denoted as C)
IC50 [2]: 0.0109 µM
HRAS /KRAS [3, 5]: B (a compound having 3 or more and less than 10 is denoted as B)
